# Test results published in patent publication US20190309017A1, “GLUTAMINASE INHIBITORS” (Glutaminax, LLC, priority 2018, published 2019).
# Where “and” joins values, the source holds several entries; their conditions need not be identical. Equal values may be shown once. Residues, ends and D or L forms follow the SMILES beside them. *: point of attachment. NHOH = ON*
# Tests used:
# [1] = tested on: IM-9 cells (Multiple Myeloma); assay: Cell kill of IM-9 cells, CyQuant NF assay (DNA content); format: cell-based
# Experimental: Compounds 6 and 9 were tested for their ability to kill IM-9 cells (Multiple Myeloma). Approximately 25,000 cells were plated in RPMI medium (4 mM glutamine). Compounds 6 and 9 were dissolved in PBS and pH adjusted to neutrality (200 mM stock). Compound 9 was added at 1 mM, 2 mM and 4 mM concentrations into separate wells. Compound 6 was added at 0.25 mM and 1 mM concentrations into separate wells. The cells were incubated for 48 and 96 hours in the presence of […], and 48 and 72 hours in the presence of compound 6. Cell number was determined with the CyQuant NF assay (measures DNA content) according to manufacturer's instruction (Invitrogen). For the sake of clarity, compounds 6 and 9 are reproduced below: […]
# [2] = tested on: Panc1 cells (Pancreatic cancer); assay: Cell kill of Panc1 cells, CyQuant NF assay (DNA content); format: cell-based
# Experimental: Compounds 6 and 9 were tested with Panc1 cells (Pancreatic cancer) plated in DMEM medium (2 mM glutamine). Approximately 30,000 live cells were plated. Compounds were dissolved in PBS and pH adjusted to neutrality (200 mM stock). Compound 9 was added at 1 mM, 2 mM and 4 mM concentrations into separate wells. Compound 6 was added at 0.25 mM and 1 mM concentrations into separate wells. The cells were incubated for 48 and 96 hours in the presence of compound 9, and 48 and 72 hours in the presence of compound 6. Cell number was determined with the CyQuant NF assay (measures DNA content) according to manufacturer's instruction (Invitrogen).
# [3] = 1 mM compound, Day 2, DMEM medium (2 mM glutamine)
SMILES,"Cells killed v. control ([1]; 0.25 mM compound, Day 3, RPMI medium (4 mM glutamine))","Cells killed v. control ([1]; 1 mM compound, Day 2, RPMI medium (4 mM glutamine))","Cells killed v. control ([1]; 1 mM compound, Day 3, RPMI medium (4 mM glutamine))","Cells killed v. control ([2]; 0.25 mM compound, Day 2, DMEM medium (2 mM glutamine))","Cells killed v. control ([2]; 0.25 mM compound, Day 3, DMEM medium (2 mM glutamine))","Cells killed v. control [2, 3]","Cells killed v. control ([2]; 1 mM compound, Day 3, DMEM medium (2 mM glutamine))","Cells killed v. control ([1]; 1 mM compound, Day 4, RPMI medium (4 mM glutamine))","Cells killed v. control ([1]; 2 mM compound, Day 2, RPMI medium (4 mM glutamine))","Cells killed v. control ([1]; 2 mM compound, Day 4, RPMI medium (4 mM glutamine))","Cells killed v. control ([1]; 4 mM compound, Day 2, RPMI medium (4 mM glutamine))","Cells killed v. control ([1]; 4 mM compound, Day 4, RPMI medium (4 mM glutamine))","Cells killed v. control ([2]; 2 mM compound, Day 2, DMEM medium (2 mM glutamine))","Cells killed v. control ([2]; 2 mM compound, Day 4, DMEM medium (2 mM glutamine))","Cells killed v. control ([2]; 4 mM compound, Day 2, DMEM medium (2 mM glutamine))","Cells killed v. control ([2]; 4 mM compound, Day 4, DMEM medium (2 mM glutamine))"
"NC(=O)CC[C@H](NC(=O)CC[C@H](N)C(=O)O)C(=O)NO [Compound 6, β-Glu-Gln (NHOH mimetic)]",~87%,~83%,~91%,~32%,~50%,~66%,~75%,–,–,–,–,–,–,–,–,–
"NC(=O)CCC(NC(=O)C(N)CCC(=O)O)C(=O)NO (stereo not drawn) [Compound 9, α-Glu-Gln (NHOH mimetic)] (H-Glu-Gln-{NHOH}; configuration not given here)",–,–,–,–,–,~0%,–,~58% and 58%,~29%,~66%,~61%,~96%,~7%,~9%,~11%,~55%
